We go through one compound from patent US9446037B2, “Methods for the treatment of parkinson's disease psychosis using pimavanserin” (ACADIA Pharmaceuticals Inc., priority 2012, dated 2016).

Structures are written as SMILES.

The test system of data set [1] is Parkinson's disease psychosis (PDP) patients. The data set is described as follows: Phase III six-week randomized double-blind placebo-controlled study in PDP patients. The format is in vivo, human. As to the method:
A six-week, multi-center, randomized, double-blind, placebo-controlled study was conducted in PDP patients. The purpose of the study was to evaluate the safety and efficacy of 40 mg pimavanserin compared to placebo in the treatment of PDP.
A total of 199 patients were enrolled in the study and randomized on a one-to-one basis to receive either 40 mg of pimavanserin or placebo once daily for six weeks, following a two-week screening period including brief psycho-social therapy. Patients also received stable doses of their existing anti-Parkinson's therapy throughout the study.
At the screening visit, a trained member of the site staff worked with the patient's caregiver to devise a structured plan of social interaction for the patient and caregiver to follow at home. This brief non-pharmacologic psychosocial counseling was intended to help the patient and caregiver to manage the symptoms and provide standard of care prior to the blinded investigational treatment phase. Following the screening visit, patients received two follow-up phone calls (˜3- and 7-days from the screening visit) to review the plan and evaluate progress. Only those patients who met entry criteria at baseline were randomized to receive 40 mg pimavanserin or matching placebo for the 6-week treatment period.
The maximum duration of the study for each subject was approximately 12 weeks. Pimavanserin was administered in tablet form, once daily by mouth in 40 mg doses (2 tablets of 20 mg). Placebo was administered with visibly matching tablets, using the same route and regimen. The safety of subjects was assessed by monitoring adverse events, physical examinations, vital signs, clinical laboratory tests (hematology, clinical chemistry, and urinalysis), and electrocardiograms.
Primary Clinical Endpoint: The combined score for the modified 9-item hallucinations and delusions domains of the Scale for the Assessment of Positive Symptoms (SAPS-PD).
Key Secondary Endpoint: Parts II-III of the Unified Parkinson's Disease Rating Scale (UPDRS), which measures motor function.
Other Secondary Endpoints: Changes in the Clinical Global Impression Scale (CGI) with emphasis on severity (CGI-S) and improvement (CGI-I) of psychosis.
Exploratory Endpoints: the Caregiver Burden Scale, and Scales for Outcomes in Parkinson's Disease-Sleep scale (SCOPA-Sleep).
Note: mixed model repeated measures (MMRM) method was applied in primary analysis of the intent-to-treat (ITT) population. The significance test was based on least-square mean change from baseline for each arm using a 2-sided […]=0.05.

In data set [2] the test system is gating deficit induced by DOI. Particulars: rat; doses of 1 and 3 mg/kg SC; cited from earlier work.
For data set [3], the system named is learning of a simple auto-shaped response. As to conditions: mice; intraperitoneal doses up to 32 mg/kg; cited from earlier work.
The test system of data set [4] is DOI ((±)-2,5-dimethoxy-4-iodoamphetamine, a serotonin agonist) induced head twitches. As to conditions: rat; oral doses of 3 and 10 mg/kg; cited from earlier work.
Data set [5] has as its system hyperactivity induced by the N-methyl-D-aspartate antagonist MK-801. Particulars: mice; oral doses of 3 and 10 mg/kg; cited from earlier work.

For the compound `CC(C)COc1ccc(CNC(=O)N(Cc2ccc(F)cc2)C2CCN(C)CC2)cc1` [Pimavanserin, N-(1-methylpiperidin-4-yl)-N-(4-fluorophenylmethyl)-N′-(4-(2-methylpropyloxy)phenylmethyl)carbamide], in data set [1] (40 mg once daily oral, 6 weeks), the “safety and tolerability in the trial” value is “safe and well tolerated”. In data set [1] (40 mg once daily oral, 6 weeks, n = 95, ITT, MMRM least-square mean change from baseline, P-value 0.001 vs placebo), the “SAPS-PD Mean Change at Day 43” value is given as −5.79. Besides, the “serious adverse event: urinary tract infection (number of patients)” value in data set [1] (40 mg once daily oral, 6 weeks, placebo 1) is 3. In data set [1] (40 mg once daily oral, 6 weeks, placebo 8.5%), the “adverse event incidence: falls” value is reported as 10.6%. Further, the “adverse event incidence: urinary tract infection” value in data set [1] (40 mg once daily oral, 6 weeks, placebo 11.7%) is 13.5%. For the same compound, the “serious adverse event: psychotic disorder (number of patients)” value in data set [1] (40 mg once daily oral, 6 weeks, placebo zero) came to 2. In addition, in data set [1] (40 mg once daily oral, 6 weeks, versus placebo, p=0.001), the “CGI-I scale (secondary efficacy measure)” value is listed as “highly significant improvement”. For the same compound, the “Caregiver Burden Scale” value in data set [1] (40 mg once daily oral, 6 weeks, versus placebo, p=0.002) is on record as “highly significant improvement”. Moreover, in data set [1] (40 mg once daily oral, 6 weeks, versus placebo, p=0.012), the “daytime wakefulness on SCOPA-sleep scale” value was “significant improvements”. Moreover, the “nighttime sleep on SCOPA-sleep scale” value in data set [1] (40 mg once daily oral, 6 weeks, versus placebo, p=0.045) is given as “significant improvements”. In data set [1] (40 mg once daily oral, day 43, blinded independent centralized raters), the “improvement in psychosis at day 43 on SAPS-PD” value stood at 5.79 point. For the same compound, in data set [1] (40 mg once daily oral, day 43, p=0.001), the “treatment difference on SAPS-PD versus placebo” value is on record as 3.06 points. Also, the “change in combined UPDRS II & III scores” value in data set [1] (40 mg once daily oral, mean change from baseline to day 43) is −1.40. In addition, the “motor function (UPDRS Parts II-III, non-inferiority versus placebo)” value in data set [1] (two-sided 95 percent CI of treatment difference, pre-specified margin of 5 points, day 43) is listed as “did not worsen motor function”. For the same compound, the “reversal of DOI induced sensory motor gating deficit” value in data set [2] is “potently reversed the gating deficit”. For the same compound, in data set [3], the “disruption of learning of a simple auto-shaped response” value is “failed to disrupt learning”. Moreover, in data set [4], the “activity in DOI induced head twitches” value is recorded as “effective”. Further, the “attenuation of MK-801 induced hyperactivity” value in data set [5] is “effective”.
